Experimental data from patent publication EP0103895A2, “Novel hydroxylamine derivatives, production and use thereof” (MEIJI SEIKA KABUSHIKI KAISHA, priority 1982, dated 1984).
Where “and” joins values, the source holds several entries; their conditions need not be identical. Equal values may be shown once. Read-outs that look alike come from different tables or passages of the source.

Columns and labels:
[1] = system: fowl roundworm (Ascaridia galli); assay: Anthelmintic test in chickens artificially infected with fowl roundworm, single oral dose in gelatin capsule, worm bodies counted within 48 hours (Test Examples A1, B1, C1, D1); assay type: in vivo; details: Ascaridia galli, po, 48 h, read-out: Anthelmintic effect after 48 hours
Procedure, shortened: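 Anthelmintic percentage derived from counts of worms passed within 48 h plus worms left in the intestine after killing at 48 h. Infection confirmed by fecal examination in three-bird groups; compound given orally once in gelatin capsules at 10/20 (A1, B1), 30/50 (C1) or 15/30 (D1) mg/kg.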

[2] = system: fowl roundworm (As. galli); assay: Anthelmintic test in chickens artificially infected with fowl roundworm, compound added to feed, E.P.G. and worm count up to 21st day (Test Examples A2, B2, C2, D2); assay type: in vivo, Ascaridia galli
[3] = system: canine whipworm (Trichuris vulpis); assay: Anthelmintic test in naturally infected dogs with mixed infections, E.P.G. on 7th day: canine whipworm (Test Examples A3, B3, C3, D3); assay type: in vivo; details: for Change of E.P.G. 7th day / Change of E.P.G. Before administration: Trichuris vulpis; for anthelmintic effect: dogs with mixed infections (Trichuris vulpis, Ancylostoma caninum, Toxocara canis; statement covers all three)
Description: (§1) Three dogs with mixed infections by canine whipworm (Trichuris vulpis), canine hookworm (Ancylostoma caninum) and canine roundworm (Toxocara canis) (naturally infected dogs) were employed in a group of two and a group of one.
(§2) The compound provided for the test was Compound No.Al, and 20 mg/Kg thereof was placed in a gelatin capsule per 1 Kg of body weight, and administered orally to the two dogs. As control, only a gelatin capsule was administered orally to the one dog.
(§3) Before administration and on the 7th day after administration, fecal matter testing was conducted to calculate the E.P.G., and the anthelmintic effect was judged by the changing of the E.P.G. to negative.
(§4) As control, only gelatin capsules were administered orally to the one dog.
(§5) The same method as in Test Example A3, but the compound provided for the test was Compound No. Cl. 30 mg/Kg of this compound was placed in a gelatin capsule per 1 Kg of body weight and administered orally to the two dogs. As control, only gelatin capsules were administered orally to the one dog.

[4] = system: canine hookworm (Ancylostoma caninum); assay: Anthelmintic test in naturally infected dogs with mixed infections, E.P.G. on 7th day: canine hookworm (Test Examples A3, B3, C3, D3); assay type: in vivo
Description: as §1, §2, §3, §4, §5

[5] = system: canine roundworm (Toxocara canis); assay: Anthelmintic test in naturally infected dogs with mixed infections, E.P.G. on 7th day: canine roundworm (Test Examples A3, B3, C3, D3); assay type: in vivo
Description: as §1, §2, §3, §4, §5

[6] = system: stomach worm (Haemonchus controtus); assay: Anthelmintic test against cow stomach worm in naturally infected cows, E.P.G. on 7th day (Test Examples A6, B6, C6, D6); assay type: in vivo
Description: Three cows infected with stomach worm (naturally infected cows) were employed by grouping them into a group of two and a group of one.
(§6) As control, only gelatin capsules were administered orally to the one cow.
as §3, §6, §6

[7] = system: canine filaria; Dirofilaria immitis; assay: Test of anthelmintic effect against canine filaria in naturally infected dogs, subcutaneous injection, microfilaria in blood and adult filaria at autopsy (Test Examples A10, B10, C10, D10); assay type: in vivo; details: for Effect on adult filaria: Number of worms killed/ Total parasite: 30 mg/kg
[8] = system: canine strongyloides (Strongyloides stercoralis); assay: Anthelmintic test against canine strongyloides in naturally infected dogs, E.P.G. on 7th day (Test Examples A4, B4, C4, D4); assay type: in vivo; details: dogs
Description: Three dogs infected with canine strongyloides (naturally infected dogs) were employed by grouping them into a group of two and a group of one.
As control, only a gelatin capsule was administered orally to the one dog.
as §3, §4, §4

[9] = system: Trichostrongylidae (Trichostrongylus colubriformis); assay: Anthelmintic test against sheep Trichostrongylidae in naturally infected sheep, E.P.G. on 7th day (Test Examples A7, B7, C7, D7); assay type: in vivo
Description: Two sheep infected with Trichostrongylidae (naturally infected sheep) were employed.
The compound provided for the test was Compound No. Al, 15 mg of which was placed in a gelatin capsule per 1 Kg of body weight and administered orally to one of the sheep. As a control, only gelatin capsules were administered orally to the other sheep.
as §3
As control, only gelatin capsules were administered orally to the other sheep.
As control, only gelatin capsule was administered orally to the other sheep.

[10] = system: swine roundworm (Ascaris suum); assay: Test of anthelmintic effect in naturally infected pigs, E.P.G. on 7th day: swine roundworm (Test Examples A9, B9, C9, D9); assay type: in vivo
Description: (§7) Six pigs infected with swine roundworm and swine whipworm (naturally infected pigs) were employed in groups each of two pigs.
(§8) As a control, only gelatin capsules were administered orally to the two pigs.
(§9) Before administration and on the 7th day after. administration, fecal matter testing was conducted to calculate the E.P.G., and the anthelmintic effect was judged by the changing of the E.P.G. to negative'.
(§10) 50 mg of each compound was placed in a gelatin capsule per 1 Kg of body weight and administered orally to each of the two pigs. As control, only gelatin capsules were administered orally to two pigs.
(§11) 30 mg of each compound was placed in a gelatin capsule per 1 Kg of body weight and administered orally to each of the two pigs. As control, only gelatin capsules were administered orally to two pigs.

[11] = system: swine whipworm (Trichuris suis); assay: Test of anthelmintic effect in naturally infected pigs, E.P.G. on 7th day: swine whipworm (Test Examples A9, B9, C9, D9); assay type: in vivo; details: pigs, 20 mg/Kg orally once, one value per pig
Description: as §7, §8, §9, §10, §11

[12] = system: Liver fluke; Fasciola hepatica (F. hepatica); assay: Test of anthelmintic effect against rat infected experimentally with liver fluke (Test Examples A11, B11, C11, D11); assay type: in vivo; set-up: key to Presence or absence of fluke egg in fecal matter On 21st day after the last administration: +: indicates detection of fluke egg; -: indicates no detection
[13] = system: Trichostrongylidae (Trichostrongylus colubriformis); assay: Anthelmintic test against sheep Trichostrongylidae in naturally infected sheep, E.P.G. on 7th day (Test Examples A7, B7, C7, D7); assay type: in vivo; remark: listed apart in the source
[14] = dog, 30 mg/Kg oral in gelatin capsule, one administration
[15] = dog, before 30 mg/Kg oral (baseline)
[16] = Dirofilaria immitis, sc, 240 h, dog, 30 mg/Kg x 3, subcutaneous injection, read-out: Effect on adult filaria: Percent of worms killed
[17] = Dirofilaria immitis, sc, 240 h, dogs, administration of 30 mg/Kg repeated three times, given as about 50% or more, read-out: anthelmintic effect against adult filaria
[18] = dog, 30 mg/Kg x 3, subcutaneous injection, suspension in 1% Tween 80
[19] = dog, 30 mg/Kg x 3, subcutaneous injection
[20] = dogs, administration of 30 mg/Kg repeated three times
[21] = dogs, 20 mg/Kg orally once, baseline, one value per dog, 20 mg/kg
[22] = dogs, 20 mg/Kg orally once, one value per dog
[23] = dogs, 20 mg/Kg x 3 subcutaneously, autopsy on 10th day after the last administration, one value per dog, 20 mg/kg

`C=CCON(CC=C)C(C)=O` [Compound C1, N,O-diallyl-N-acetylhydroxyl- amine] gave an inhibition in vivo at 30 mg/kg ([1]; chicken, 30 mg/Kg oral in gelatin capsule, chickens No.1-3) of 100%, an inhibition in vivo at 50 mg/kg ([1]; chicken, 50 mg/Kg oral in gelatin capsule, chickens No.1-3) of 100% and an inhibition in vivo at 25 ppm ([2]; Ascaridia galli, feed or water, 504 h, chicken, 25 ppm in feed, read-out: Anthelmintic effect) of 100%. For the same compound, the inhibition in vivo at 50 ppm ([2]; Ascaridia galli, feed or water, 504 h, chicken, 50 ppm in feed, read-out: Anthelmintic effect) was 100%, the “Change of E.P.G. 21st day” value ([2]; chicken, 25 ppm in feed) was 0 and the “Change of E.P.G. 21st day” value ([2]; chicken, 50 ppm in feed) was 0. For the same compound, the “Change of E.P.G. 7th day” value [3, 14] was 0, the “Change of E.P.G. Before administration” value [3, 15] was 2,300 and 4,200 and the “anthelmintic effect” value ([3]; one administration of 30 mg/Kg) was “marked anthelmintic effect”. The “Change of E.P.G. 7th day” value [4, 14] was 0, the “Change of E.P.G. Before administration” value [4, 15] was 4,500 and 6,600 and the “Change of E.P.G. 7th day” value [5, 14] was 0. For the same compound, the “Change of E.P.G. Before administration” value [5, 15] was 3,300 and 3,100, the “Change of E.P.G. 7th day” value ([6]; cow, Haemonchus controtus, 20 mg/Kg oral in gelatin capsule, one administration) was 0 and the “Change of E.P.G. Before administration” value ([6]; cow, Haemonchus controtus, before 20 mg/Kg oral (baseline)) was 2,200 and 1,400. The “anthelmintic effect” value ([6]; cows, one administration of 20 mg/Kg) was “marked anthelmintic effect”, the inhibition in vivo at 30 mg/kg [7, 16] was 86% and the inhibition in vivo at 30 mg/kg [7, 17] was ≥ 50%. For the same compound, the “Number of microfilaria/20 µl On 10th day after the last administration” value [7, 18] was 0 /20 µl, the “Effect on adult filaria: Number of worms killed/ Total parasite” value [7, 19] was 13/15 and 16/21 and the “anthelmintic effect against microfilaria (mf)” value (from here on “anthelmintic effect … (mf)”) [7, 20] was “marked anthelmintic effect”.
For `C#CCN(OC)C(C)=O` [Compound A1, N-propargyl-N-acetyl-O-methylhydroxylamine], the inhibition in vivo at 10 ppm ([2]; Ascaridia galli, po, 504 h, chickens, 10 ppm added to feed, worm count on 21st day, one value per chicken, read-out: Anthelmintic effect) was 80 to 90%, the inhibition in vivo at 50 ppm ([2]; Ascaridia galli, po, 504 h, chickens, 50 ppm added to feed, worm count on 21st day, one value per chicken, read-out: Anthelmintic effect) was 100% and the “anthelmintic effect” value ([3]; one administration of 20 mg/Kg) was “marked anthelmintic effect”. The “Change of E.P.G. Before administration” value [3, 21] was 3,200 E.P.G. and 2,700 E.P.G, the “Change of E.P.G. 7th day” value [3, 22] was 0 E.P.G and the “Change of E.P.G. Before administration” value [4, 21] was 4,500 E.P.G. and 7,800 E.P.G. For the same compound, the “Change of E.P.G. 7th day” value [4, 22] was 0 E.P.G, the “Change of E.P.G. Before administration” value [5, 21] was 5,100 E.P.G. and 2,300 E.P.G and the “Change of E.P.G. 7th day” value [5, 22] was 0 E.P.G. The “anthelmintic effect” value ([8]; one administration of 10 mg/Kg) was “marked anthelmintic effect”, the “anthelmintic effect” value ([8]; one administration of 20 mg/Kg) was “marked anthelmintic effect” and the “Change of E.P.G. 7th day” value ([9]; 15 mg/Kg orally once) was 0 E.P.G. The “Change of E.P.G. Before administration” value ([9]; 15 mg/Kg orally once, baseline) was 1,600 E.P.G, the “anthelmintic effect” value ([9]; one administration of 15 mg/Kg) was “marked anthelmintic effect” and the “anthelmintic effect” value ([10]; pigs infected with swine roundworm and swine whipworm (statement covers both), one administration of 20 mg/Kg) was “marked anthelmintic effect”. For the same compound, the “Change of E.P.G. 7th day” value ([10]; pigs, 20 mg/Kg orally once, Ascaris suum, one value per pig) was 0 E.P.G, the “Change of E.P.G. Before administration” value ([11]; baseline, 20 mg/kg) was 1,300 E.P.G. and 2,100 E.P.G and the “Change of E.P.G. 7th day” value [11] was 0 E.P.G. The inhibition in vivo at 20 mg/kg ([7]; Dirofilaria immitis, sc, 240 h, dogs, administration of 20 mg/Kg repeated three times, given as about 50% or more, read-out: anthelmintic effect against adult filaria) was ≥ 50%, the “Effect on adult filaria: Number of worms killed/Total parasites” value [7, 23] was 7/12 and 5/ 7 and the “Effect on adult filaria: Percent of worms killed” value [7, 23] was 58% and 71%. The “Number of microfilaria/20 µl On 10th day after the last administration” value ([7]; dogs, 20 mg/Kg x 3 subcutaneously, earlobe blood, one value per dog) was 0 /20 µl, the “anthelmintic effect … (mf)” value ([7]; dogs, administration of 20 mg/Kg repeated three times) was “marked anthelmintic effect” and the “Condition of fluke body” value ([12]; rats, 50 mg/Kg x 5 orally, autopsy, liver, "Denatured" = fluke body is alive but a part of fluke body has changed, one value per rat) was “dead”. For the same compound, the “Presence or absence of fluke egg in fecal matter On 21st day after the last administration” value ([12]; rats, 50 mg/Kg x 5 orally, one value per rat) was “-”.
For `C=CCN(OCC)C(C)=O` [Compound B8, N-allyl-N-acetyl-O-ethylhydroxylamine], the inhibition in vivo at 30 mg/kg ([1]; chickens, 30 mg/Kg orally in gelatin capsule, one value per chicken (No.1-3)) was 100%, the inhibition in vivo at 50 mg/kg ([1]; chickens, 50 mg/Kg orally in gelatin capsule, one value per chicken (No.1-3)) was 100% and the “Change of E.P.G. Before administration” value ([8]; 20 mg/Kg orally once, baseline, one value per dog, 20 mg/kg) was 5,300 E.P.G. and 2,600 E.P.G. The “Change of E.P.G. 7th day” value ([8]; 20 mg/Kg orally once, one value per dog) was 0 E.P.G, the inhibition in vivo at 30 mg/kg [7, 16] was 58% and the inhibition in vivo at 30 mg/kg [7, 17] was ≥ 50%. The “Number of microfilaria/20 µl on 10th day after the last administration” value [7, 18] was 0 /20 µl, the “Effect on adult filaria: Number of worms killed/ Total parasite” value [7, 19] was 7/12 and 13/21 and the “anthelmintic effect … (mf)” value [7, 20] was “marked anthelmintic effect”. The “Condition of fluke body” value ([12]; rat, 50 mg/Kg x 5) was “dead”, the “Presence or absence of fluke egg in fecal matter On 21st day after the last administration” value ([12]; rat, 50 mg/Kg x 5) was “-” and the “anthelmintic effect” value ([12]; rats, five administrations in a dose of 50 mg/Kg each) was “marked antihelmintic effect”. For the same compound, the “Change of E.P.G. 7th day” value ([13]; 20 mg/Kg orally once) was 0 E.P.G, the “Change of E.P.G. Before administration” value ([13]; 20 mg/Kg orally once, baseline) was 3,400 E.P.G and the “anthelmintic effect” value ([13]; one administration of 20 mg/Kg) was “marked anthelmintic effect”.
